Experimental data taken from ChEMBL document CHEMBL1201862, “PubChem BioAssay data set” (2004).
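Where inhibition never reached the appropriate level, the endpoint shown equals the highest concentration tested. Otherwise, values were interpolated linearly from a five-concentration, 48-hour dose response in 96-well plates. The concentration for 50% growth inhibition is given as GI50.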 Activity calls are given as the source filed them. No stated cut-off is given here; in the data, active = GI50 up to about 1.1 µM and inactive = higher.

What was measured:
Test in all cases: NCI tumour cell line growth inhibition, 48 h
[1] = system: SW-620
[2] = system: LOX IMVI
[3] = system: RPMI-8226
[4] = system: HT-29
[5] = system: HOP-62
[6] = system: OVCAR-5
[7] = system: TK-10
[8] = system: NCI/ADR-RES
[9] = system: OVCAR-4
[10] = system: SR
[11] = system: SN12C
[12] = system: ACHN
[13] = system: SNB-19
[14] = system: 786-0
[15] = system: NCI-H226
[16] = system: DU-145
[17] = system: OVCAR-3
[18] = system: UACC-62
[19] = system: UO-31
[20] = system: RXF 393

Structure (SMILES)	GI50 [1]	GI50 [2]	GI50 [3]	GI50 [4]	GI50 [5]	GI50 [6]	GI50 [7]	GI50 [8]	GI50 [9]	GI50 [10]	GI50 [11]	GI50 [12]	GI50 [13]	GI50 [14]	GI50 [15]	GI50 [16]	GI50 [17]	GI50 [18]	GI50 [19]	GI50 [20]
CC1CCC(C(C)C)C(OC(=O)NCn2cc(-c3ccccc3)nn2)C1 (stereo unspecified)	> 100 µM (inactive)	> 100 µM (inactive)	> 100 µM (inactive)	> 100 µM (inactive)	25.6 µM (inactive)	> 100 µM (inactive)	75.5 µM (inactive)	> 100 µM (inactive)	57.8 µM (inactive)	> 100 µM (inactive)	> 100 µM (inactive)	> 100 µM (inactive)	33.9 µM (inactive)	41.2 µM (inactive)	75.2 µM (inactive)	> 100 µM (inactive)				
NC(=O)CN1CC(C2=C(O)CN(CC(N)=O)C2=O)=CC1=O	> 100 µM (inactive)	> 100 µM (inactive)	> 100 µM (inactive)	> 100 µM (inactive)	> 100 µM (inactive)	> 100 µM (inactive)	> 100 µM (inactive)	> 100 µM (inactive)	> 100 µM (inactive)	> 100 µM (inactive)	> 100 µM (inactive)	> 100 µM (inactive)	> 100 µM (inactive)	> 100 µM (inactive)	> 100 µM (inactive)	> 100 µM (inactive)	> 100 µM (inactive)	> 100 µM (inactive)	85.7 µM (inactive)	
COc1nc(O)nc2c1C(c1ccc([N+](=O)[O-])cc1)c1c(OC)nc(O)nc1O2	> 100 µM (inactive)		> 100 µM (inactive)	> 100 µM (inactive)	> 100 µM (inactive)	> 100 µM (inactive)	> 100 µM (inactive)	> 100 µM (inactive)	> 100 µM (inactive)		> 100 µM (inactive)	> 100 µM (inactive)	> 100 µM (inactive)	> 100 µM (inactive)	> 100 µM (inactive)	> 100 µM (inactive)	> 100 µM (inactive)	> 100 µM (inactive)	> 100 µM (inactive)	> 100 µM (inactive)
S=C(/N=c1\sc(NCc2ccccc2)nc2sc3c(c12)CCN(N1CCc2c(sc4nc(NCc5ccccc5)s/c(=N\C(=S)NCc5ccccc5)c24)C1)C3)NCc1ccccc1	22.3 µM (inactive)	15 µM (inactive)	14.6 µM (inactive)	22.6 µM (inactive)	27.5 µM (inactive)	45 µM (inactive)	48.9 µM (inactive)	37.8 µM (inactive)	36.7 µM (inactive)		16.2 µM (inactive)	29.1 µM (inactive)	28.2 µM (inactive)	9.64 µM (inactive)	49.9 µM (inactive)	45 µM (inactive)	20.1 µM (inactive)	38.6 µM (inactive)	15.4 µM (inactive)	36.1 µM (inactive)
CC(C)NCCC(O)c1cc2ccccc2o1 (stereo unspecified)	> 100 µM (inactive)	> 100 µM (inactive)	> 100 µM (inactive)	> 100 µM (inactive)	> 100 µM (inactive)	> 100 µM (inactive)	> 100 µM (inactive)	> 100 µM (inactive)	> 100 µM (inactive)		30.1 µM (inactive)	> 100 µM (inactive)	> 100 µM (inactive)	> 100 µM (inactive)	> 100 µM (inactive)	> 100 µM (inactive)	> 100 µM (inactive)	> 100 µM (inactive)	> 100 µM (inactive)	> 100 µM (inactive)
C[C@]12CC[C@@H]3c4ccc(O)cc4CC[C@H]3[C@@H]1CC[C@@H]2OC(=O)CCc1ccccc1	23.3 µM (inactive)	18.2 µM (inactive)	15.7 µM (inactive)	19.6 µM (inactive)	22.1 µM (inactive)	44.4 µM (inactive)	18.5 µM (inactive)	16.6 µM (inactive)	17.5 µM (inactive)		22.9 µM (inactive)	18.7 µM (inactive)	18.5 µM (inactive)	34 µM (inactive)	19.1 µM (inactive)	19.5 µM (inactive)	20.5 µM (inactive)	13.9 µM (inactive)	16 µM (inactive)	16.4 µM (inactive)
COc1ncnc2c1cnn2Cc1cn(COCC(O)CO)nn1 (stereo unspecified)	> 100 µM (inactive)	> 100 µM (inactive)	> 100 µM (inactive)	> 100 µM (inactive)	> 100 µM (inactive)	> 100 µM (inactive)	> 100 µM (inactive)	> 100 µM (inactive)	> 100 µM (inactive)	> 100 µM (inactive)	> 100 µM (inactive)	> 100 µM (inactive)	> 100 µM (inactive)	> 100 µM (inactive)	> 100 µM (inactive)	> 100 µM (inactive)	> 100 µM (inactive)	> 100 µM (inactive)	> 100 µM (inactive)	
COc1ccccc1C(=O)N(Cc1ccccc1)c1ccc(Cl)c(C(=O)OC(C)C)c1	31.8 µM (inactive)	28.2 µM (inactive)	5.69 µM (inactive)	16.6 µM (inactive)	18.8 µM (inactive)	> 63.1 µM (inactive)	26.8 µM (inactive)	20.2 µM (inactive)	15.6 µM (inactive)		27.6 µM (inactive)	25 µM (inactive)	24.3 µM (inactive)	25.9 µM (inactive)	13.6 µM (inactive)	32.4 µM (inactive)	17.7 µM (inactive)	19.8 µM (inactive)	7.71 µM (inactive)	11.8 µM (inactive)
COc1c(N2CCCCC2)c2c(=O)c3ccccc3oc2c2c3ccccc3n(C)c12	> 100 µM (inactive)	> 100 µM (inactive)	47.1 µM (inactive)	42.4 µM (inactive)	> 100 µM (inactive)	> 100 µM (inactive)	> 100 µM (inactive)	> 100 µM (inactive)	> 100 µM (inactive)		47.6 µM (inactive)	> 100 µM (inactive)	> 100 µM (inactive)	> 100 µM (inactive)	> 100 µM (inactive)	> 100 µM (inactive)	> 100 µM (inactive)	> 100 µM (inactive)	> 100 µM (inactive)	94.6 µM (inactive)
CC(=O)Nc1ccc2c(c1)[nH]c(=O)c1cc(Cl)ccc12	27.7 µM (inactive)	19.5 µM (inactive)		15.4 µM (inactive)	33 µM (inactive)	27 µM (inactive)	15.2 µM (inactive)	48.8 µM (inactive)	34.1 µM (inactive)	3.2 µM (inactive)	43.5 µM (inactive)	23.9 µM (inactive)	65.9 µM (inactive)	65.6 µM (inactive)	10.2 µM (inactive)	19.9 µM (inactive)		12.3 µM (inactive)	18.2 µM (inactive)	
CCOC(=O)C(C(=O)c1ccccc1C(=O)OC)=P(c1ccccc1)(c1ccccc1)c1ccccc1	> 10 µM (inactive)	> 10 µM (inactive)	> 10 µM (inactive)	> 10 µM (inactive)	> 10 µM (inactive)	> 10 µM (inactive)	> 10 µM (inactive)	> 10 µM (inactive)	> 10 µM (inactive)		> 10 µM (inactive)	> 10 µM (inactive)	> 10 µM (inactive)	> 10 µM (inactive)	> 10 µM (inactive)	> 10 µM (inactive)	> 10 µM (inactive)	> 10 µM (inactive)	> 10 µM (inactive)	> 10 µM (inactive)
OC(c1cc2ccc(C(F)(F)F)cc2c2cc(C(F)(F)F)ccc12)C1CCCCN1 (stereo unspecified)	1.49 µM (inactive)	1.26 µM (inactive)	2.17 µM (inactive)	2.07 µM (inactive)	1.85 µM (inactive)	1.77 µM (inactive)	1.73 µM (inactive)	1.82 µM (inactive)	1.77 µM (inactive)	2.38 µM (inactive)	1.74 µM (inactive)	1.33 µM (inactive)	1.84 µM (inactive)	1.58 µM (inactive)		1.8 µM (inactive)	1.63 µM (inactive)	2.06 µM (inactive)	1.41 µM (inactive)	
COc1cccc(OCC(=N/NC(=O)c2ccncc2)/N=C/c2cccnc2)c1	> 100 µM (inactive)	> 100 µM (inactive)	68.2 µM (inactive)	> 100 µM (inactive)	> 100 µM (inactive)	> 100 µM (inactive)	> 100 µM (inactive)	> 100 µM (inactive)	> 100 µM (inactive)			> 100 µM (inactive)	> 100 µM (inactive)	> 100 µM (inactive)	> 100 µM (inactive)	> 100 µM (inactive)	> 100 µM (inactive)	> 100 µM (inactive)		> 100 µM (inactive)
c1ccc(Cc2cccc3cc(-c4ccc(-c5ccccc5)cc4)[nH]c23)cc1	92 µM (inactive)	> 100 µM (inactive)	71.4 µM (inactive)	> 100 µM (inactive)	31.5 µM (inactive)	> 100 µM (inactive)	> 100 µM (inactive)	> 100 µM (inactive)	19.7 µM (inactive)	16.9 µM (inactive)	96.6 µM (inactive)	> 100 µM (inactive)	93.3 µM (inactive)	> 100 µM (inactive)	> 100 µM (inactive)	54.6 µM (inactive)	> 100 µM (inactive)	> 100 µM (inactive)	> 100 µM (inactive)	
CCC1(O)C(=O)OCc2c1cc1n(c2=O)Cc2cc3cc(N)ccc3nc2-1 (stereo unspecified)	0.0219 µM (active)	< 0.01 µM (active)	0.0341 µM (active)	0.0311 µM (active)	< 0.01 µM (active)	< 0.0271 µM (active)	1.9 µM (inactive)	< 0.01 µM (active)	0.257 µM (active)	< 0.01 µM (active)	< 0.01 µM (active)	< 0.01 µM (active)	< 0.01 µM (active)	< 0.01 µM (active)	< 0.0338 µM (active)	< 0.01 µM (active)	0.0466 µM (active)	< 0.01 µM (active)	< 0.01 µM (active)	
